Experimental data reported in article PMC9848270, “Synthesis and biological assessment of indole derivatives containing penta-heterocycles scaffold as novel anticancer agents towards A549 and K562 cells” (Journal of Enzyme Inhibition and Medicinal Chemistry, 2023).
Each block holds one compound with its values, some of them ahead of it.

Legend:
[1] = system: normal cell line (HEK293); experiment: MTT cytotoxicity, normal cell line HEK293; format: cell-based, human; conditions: Homo sapiens, HEK293; 10 μM; read-out: Inhibition rate, HEK293
[2] = MTT cytotoxicity, normal cell line HEK293; format: cell-based, human; conditions: human, HEK293 cells (normal cell line); MTT assay, 48 h; normal cell line; CC50; read-out: In vitro cytotoxicity IC50, HEK293
[3] = system: human chronic myeloid leukaemia cells (K562); experiment: MTT antiproliferative assay, K562; format: cell-based; conditions: for inhibition at 10 µM: K562, 10 μM, read-out: Inhibition rate, K562; for IC50: K562, 48 h, MTT assay, 48 h, read-out: In vitro cytotoxicity IC50, K562
Description: (§1) A549, PC-3, HepG2 and K562 cells were purchased from the Kunming cell bank of the Chinese academy of sciences. All cell lines were cultured in DMEM or RPMI 1640 complete medium. Logarithmic growth cells were cultured in 96-well plates at a concentration of 10^4 cells per well and pre-cultured for 24 h before adding test compounds. The MTT test with 5-Fluorouracil and Gefitinib as reference compounds were used to evaluate antiproliferative activity of target compounds in four human cancer line cells. For the estimation of the inhibition concentration (IC50), the Graph Pad Prism (GraphPad Software, San Diego, CA) was used.

A549 cells [4] = experiment: Annexin V-FITC/PI apoptosis flow cytometry, A549; format: cell-based, human; conditions: 4 µM, 48 h
Description: (§2) Annexin-V/FITC assay, after the adherent cells grew stably in the 6-well plate, each group was reacted with different concentrations of compound solutions for 48 h. Then, cells were collected by trypsinization without EDTA, rinsed twice with PBS, followed by the Annexin V-FITC/PI apoptosis detection kit (Solarbio, Bei Jing, China) according to the kit instructions, flow cytometry by BD FACSCalibur instrument (American BD Company Shanghai Co., Ltd.).

[5] = system: human liver cancer cells (HepG2); experiment: MTT antiproliferative assay, HepG2; format: cell-based; conditions: for inhibition at 10 µM: read-out: Inhibition rate, HepG2; for IC50: MTT assay, 48 h, read-out: In vitro cytotoxicity IC50, HepG2
Description: as §1

[6] = system: human non-small cell lung cancer cells (A549); experiment: MTT antiproliferative assay, A549; format: cell-based; conditions: for inhibition at 10 µM: A549, 10 μM, read-out: Inhibition rate, A549; for IC50: A549, 48 h, MTT assay, 48 h, read-out: In vitro cytotoxicity IC50, A549
Description: as §1

K562 cells [7] = experiment: Cell cycle analysis (PI staining, flow cytometry), K562; format: cell-based, human; conditions: 4 µM, 48 h
Description: (§3) A549 or K562 cells were separately seeded at 4.0 × 10^5cells/well in six-well plates and incubated for 24 h until adherent. […] After treatment, the cells were collected, and washed twice with pre-cooled PBS and then fixed with ice-cold ethanol (70%), subsequently kept 4 °C for overnight. After washing twice with PBS, cells were incubated at 37 °C with 100 µ L RNase A for 30 min. After this, cells were incubated with 400 µL PI for 30 min at 4 °C. Finally, the cell cycle distribution of compound 10 b was analysed via the BD FACSCalibur flow cytometry (American BD Corporation Shanghai Co. Ltd.)

A549 cells [8] = experiment: Cell cycle analysis (PI staining, flow cytometry), A549; format: cell-based, human; conditions: 4 µM, 48 h
Description: as §3

[9] = system: human prostate cancer cells (PC-3); experiment: MTT antiproliferative assay, PC-3; format: cell-based; conditions: Homo sapiens; for IC50: 48 h, MTT assay, read-out: In vitro cytotoxicity IC50, PC-3; for inhibition at 10 µM: read-out: Inhibition rate, PC-3
Description: as §1

K562 cells [10] = experiment: Annexin V-FITC/PI apoptosis flow cytometry, K562; format: cell-based, human; set-up: total numbers of apoptotic cells, K562: dose or concentration left out as unconfirmed; conditions: 48 h
Description: as §2

[11] = system: A549, PC-3, HepG2 and K562 cells; experiment: MTT antiproliferative assay, four cancer cell lines taken together; format: cell-based, human
Description: as §1

Compound: O=c1[nH]cc(F)c(=O)[nH]1 [5-Fluorouracil, reference compound]
inhibition at 10 µM [1]: 72.1 ± 3.71% | IC50 at 48 h [2]: 3.62 ± 0.25 µM | inhibition at 10 µM [3]: 39.9 ± 6.44% | IC50 [3]: 12.3 ± 2.5 µM | total numbers of apoptotic cells, A549 (A549 cells [4]): 28.3% | inhibition at 10 µM [5]: 26.4 ± 0.513% | IC50 [5]: 15 ± 3.87 µM | inhibition at 10 µM [6]: 54.3 ± 1.07% | IC50 [6]: 3.46 ± 0.45 µM | DNA contents of the live population, G0/G1 phase, K562 (K562 cells [7]): 30.93% | DNA contents of the live population, G2/M phase, K562 (K562 cells [7]): 16.07% | DNA contents of the live population, S phase, K562 (K562 cells [7]): 48.27% | DNA contents of the live population, G0/G1 phase, A549 (A549 cells [8]): 46.87% | DNA contents of the live population, G2/M phase, A549 (A549 cells [8]): 13.13% | DNA contents of the live population, S phase, A549 (A549 cells [8]): 34.63% | IC50 [9]: 10.9 ± 3.4 µM | inhibition at 10 µM [9]: 37 ± 6.18% | total numbers of apoptotic cells, K562 (K562 cells [10]): 13.4%

Compound: O=C(CSc1nnc(-c2ccccc2Br)s1)Nc1cc(-c2c[nH]c3ccccc23)n[nH]1 [Compound 10c, N-(3-(1H-indol-3-yl)-1H-pyrazol-5-yl)-2-((5–(2-bromophenyl)-1,3,4-thiadiazol-2-yl)thio)acetamide]
inhibition at 10 µM [1]: 33 ± 1.46% | IC50 at 48 h [2]: 63.7 ± 6.51 µM | inhibition at 10 µM [3]: 27.1 ± 1.87% | IC50 [3]: 33.7 ± 3.54 µM | antiproliferative activity in words [11]: quite weak antiproliferative activity | inhibition at 10 µM [5]: 11.9 ± 2.21% | IC50 [5]: 61.3 ± 17 µM | inhibition at 10 µM [6]: 24.3 ± 2.77% | IC50 [6]: 18.8 ± 2.92 µM | IC50 [9]: 31.9 ± 18 µM | inhibition at 10 µM [9]: 30.3 ± 12.6%

Compound: O=C(CSc1nnc(-c2ccccc2F)s1)Nc1cc(-c2c[nH]c3ccccc23)n[nH]1 [Compound 10g, N-(3-(1H-indol-3-yl)-1H-pyrazol-5-yl)-2-((5-(2-fluorophenyl)-1,3,4-thiadiazol-2-yl)thio)acetamide]
inhibition at 10 µM [1]: 68.1 ± 4.49% | IC50 at 48 h [2]: 10.1 ± 2.2 µM | inhibition at 10 µM [3]: 97.4 ± 0.838% | IC50 [3]: 3.32 ± 0.09 µM | antiproliferative activity in words [11]: quite weak antiproliferative activity | inhibition at 10 µM [5]: 56.9 ± 9.69% | IC50 [5]: 11.8 ± 2.02 µM | inhibition at 10 µM [6]: 55.2 ± 3.17% | IC50 [6]: 14.2 ± 1.61 µM | IC50 [9]: 2.98 ± 0.28 µM | inhibition at 10 µM [9]: 96.4 ± 2.21%

melting point: 208 to 210 °C
Compound: Nn1c(SCC(=O)Nc2cc(-c3c[nH]c4ccccc34)n[nH]2)nnc1-c1ccccn1 [Compound 11i, N-(3-(1H-indol-3-yl)-1H-pyrazol-5-yl)-2-((4-amino-5-(pyridine-2-yl)-4H-1,2,4-triazol-3-yl)thio)acetamide]
inhibition at 10 µM [1]: 67.1 ± 2.18% | IC50 at 48 h [2]: 1.45 ± 0.22 µM | inhibition at 10 µM [3]: 99.5 ± 0.155% | IC50 [3]: 1.26 ± 0.24 µM | inhibition at 10 µM [5]: 95.3 ± 3.04% | IC50 [5]: 2.5 ± 1.44 µM | inhibition at 10 µM [6]: 94.8 ± 1.91% | IC50 [6]: 2.97 ± 0.83 µM | IC50 [9]: 2.77 ± 0.91 µM | inhibition at 10 µM [9]: 83.6 ± 5.66%

melting point: 136 to 138 °C
Compound: Nn1c(SCC(=O)Nc2cc(-c3c[nH]c4ccccc34)n[nH]2)nnc1-c1ccccc1Cl [Compound 11j, N-(3-(1H-indol-3-yl)-1H-pyrazol-5-yl)-2-((4-amino-5–(2-chlorophenyl)-4H-1,2,4-triazol-3-yl)thio)acetamide]
inhibition at 10 µM [1]: 10.9 ± 7.59% | IC50 at 48 h [2]: 63 ± 0.87 µM | inhibition at 10 µM [3]: 14.3 ± 0.525% | IC50 [3]: 42.4 ± 3.6 µM | inhibition at 10 µM [5]: 14.4 ± 0.686% | IC50 [5]: 50.6 ± 4.69 µM | inhibition at 10 µM [6]: 13.7 ± 1.49% | IC50 [6]: 56.8 ± 5.27 µM | IC50 [9]: 34.4 ± 2.57 µM | inhibition at 10 µM [9]: 17.8 ± 2.85%

melting point: > 300 °C
Compound: Nn1c(SCC(=O)Nc2cc(-c3c[nH]c4ccccc34)n[nH]2)nnc1-c1ccccc1 [Compound 11k, N-(3-(1H-indol-3-yl)-1H-pyrazol-5-yl)-2-((4-amino-5-phenyl-4H-1,2,4-triazol-3-yl)thio)acetamide]
inhibition at 10 µM [1]: 0.497 ± 5.03% | IC50 at 48 h [2]: 23.6 ± 4.14 µM | inhibition at 10 µM [3]: 19.2 ± 3.55% | IC50 [3]: 39.7 ± 7.96 µM | inhibition at 10 µM [5]: 11.1 ± 0.757% | IC50 [5]: 73.1 ± 8.07 µM | inhibition at 10 µM [6]: 23.2 ± 0.539% | IC50 [6]: 23.9 ± 3.08 µM | IC50 [9]: 25.4 ± 2.77 µM | inhibition at 10 µM [9]: 23.1 ± 3.99%
